The source of these data is US20220041647A1, “ESTRA-1,3,5(10)-TRIENE COMPOUNDS CONDENSED IN POSITION 16(17) WITH A PYRAZOLE RING AS INHIBITORS OF 17-HSD1” (FORENDO PHARMA LTD, priority 2018, published 2022).

By inhibition is commonly meant the percentage by which the read-out fell short of the control.

In the test the target is T1, recombinant human 17β-HSD1 (Homo sapiens, UniProt P14061).
T1 construct: made in house; host or cells: Sd9 (Sf9) insect cells, baculovirus (Bac to Bac Expression System)
T1 sequence (P14061 1-328): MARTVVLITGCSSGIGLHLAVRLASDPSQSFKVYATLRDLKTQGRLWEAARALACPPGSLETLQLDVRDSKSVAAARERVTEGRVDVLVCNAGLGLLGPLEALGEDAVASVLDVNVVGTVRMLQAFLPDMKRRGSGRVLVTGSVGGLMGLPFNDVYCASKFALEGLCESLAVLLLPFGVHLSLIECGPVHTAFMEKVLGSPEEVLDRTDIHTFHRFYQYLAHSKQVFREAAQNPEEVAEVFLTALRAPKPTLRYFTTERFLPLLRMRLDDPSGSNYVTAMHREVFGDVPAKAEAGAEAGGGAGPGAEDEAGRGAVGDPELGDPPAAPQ
As to the kind of experiment: Inhibition of recombinant human 17β-HSD1 (estrone to estradiol conversion, HPLC/radioactivity). The class given is biochemical. To be noted: compound 100 nM; 30 nM estrone, 1 mM NADPH, 30 min RT. In outline: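 Microsomal human 17β-HSD1 from Sf9 baculovirus (1 μg/ml) was incubated 30 min at RT in 20 mM KH2PO4 pH 7.4 with 30 nM ^3H-estrone, 1 mM NADPH and inhibitor at 1 μM or 0.1 μM (1% DMSO). Estrone and estradiol were separated by HPLC with radioactivity detection. % inhibition = 100 − % conversion relative to uninhibited control.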

With `C[C@]12CCC3c4ccc(F)cc4CCC3C1[C@H](CCC(=O)Nc1ccc(F)cn1)c1c[nH]nc12` (stereo partly drawn) [Compound 99, 3-((8aS,12S)-4-fluoro-8a-methyl-1,2,6b,7,8,8a,10,12,12a,12b-decahydronaphtho[2′,1′:4,5]indeno[1,2-c]pyrazol-12-yl)-N-(5-fluoropyridin-2-yl)propanamide], the inhibition at 0.1 µM turned out to be 84%.
As to `COc1ccnc(NC(=O)CC[C@@H]2c3c[nH]nc3[C@@]3(C)CCC4c5ccc(F)cc5CCC4C23)c1` (stereo partly drawn) [Compound 90, 3-((8aS,12S)-4-fluoro-8a-methyl-1,2,6b,7,8,8a,10,12,12a,12b-decahydronaphtho[2′,1′:4,5]indeno[1,2-c]pyrazol-12-yl)-N-(4-methoxypyridin-2-yl)propanamide], the inhibition at 0.1 µM came to 70%.
The figure for `C[C@]12CCC3c4ccccc4CCC3C1[C@H](CCC(=O)Nc1ccc(F)cn1)c1c[nH]nc12` (stereo partly drawn) [Compound 159, N-(5-fluoropyridin-2-yl)-3-((8aS,12S)-8a-methyl-1,2,6b,7,8,8a,10,12,12a,12b-decahydronaphtho[2′,1′:4,5]indeno[1,2-c]pyrazol-12-yl)propanamide] is 90%; for `CN1CCN(c2ccc(NC(=O)CC[C@@H]3c4c[nH]nc4[C@@]4(C)CCC5c6cccc(F)c6CCC5C34)nc2)CC1` (stereo partly drawn) [Compound 42, 3-((8aS,12S)-3-fluoro-8a-methyl-1,2,6b,7,8,8a,10,12,12a,12b-decahydronaphtho[2′,1′:4,5]indeno[1,2-c]pyrazol-12-yl)-N-(5-(4-methylpiperazin-1-yl)pyridin-2-yl)propanamide] it is 91%; for `CCN(CC)C(=O)CC[C@@H]1c2c[nH]nc2[C@@]2(C)CCC3c4cccc(F)c4CCC3C12` (stereo partly drawn) [Compound 216, N,N-diethyl-3-((8aS,12S)-3-fluoro-8a-methyl-1,2,6b,7,8,8a,10,12,12a,12b-decahydronaphtho[2′,1′:4,5]indeno[1,2-c]pyrazol-12-yl)propanamide] it is 93%.
Then `C[C@]12CCC3c4cccc(F)c4CCC3C1[C@H](CCC(=O)Nc1ccccn1)c1c[nH]nc12` (stereo partly drawn) [Compound 18, 3-((8aS,12S)-3-fluoro-8a-methyl-1,2,6b,7,8,8a,10,12,12a,12b-decahydronaphtho[2′,1′:4,5]indeno[1,2-c]pyrazol-12-yl)-N-(pyridin-2-yl)propanamide], with 91%; and `C[C@]12CCC3c4ccc(F)cc4CCC3C1[C@H](CCC(=O)Nc1ccc(N3CCOCC3)cn1)c1c[nH]nc12` (stereo partly drawn) [Compound 96, 3-((8aS,12S)-4-fluoro-8a-methyl-1,2,6b,7,8,8a,10,12,12a,12b-decahydronaphtho[2′,1′:4,5]indeno[1,2-c]pyrazol-12-yl)-N-(5-morpholinopyridin-2-yl)propanamide], with 74%.
Then `COc1ccnc(NC(=O)CC[C@@H]2c3c[nH]nc3[C@@]3(C)CCC4c5cccc(F)c5CCC4C23)c1` (stereo partly drawn) [Compound 48, 3-((8aS,12S)-3-fluoro-8a-methyl-1,2,6b,7,8,8a,10,12,12a,12b-decahydronaphtho[2′,1′:4,5]indeno[1,2-c]pyrazol-12-yl)-N-(4-methoxypyridin-2-yl)propanamide], with 91%; and `C[C@]12CCC3c4cccc(F)c4CCC3C1[C@H](CCC(=O)N1CCCC1)c1c[nH]nc12` (stereo partly drawn) [Compound 210, 3-((8aS,12S)-3-fluoro-8a-methyl-1,2,6b,7,8,8a,10,12,12a,12b-decahydronaphtho[2′,1′:4,5]indeno[1,2-c]pyrazol-12-yl)-1-(pyrrolidin-1-yl)propan-1-one], with 94%.
As to `COc1ccnc(NC(=O)CC[C@@H]2c3c[nH]nc3[C@@]3(C)CCC4c5ccccc5CCC4C23)c1` (stereo partly drawn) [Compound 165, N-(4-methoxypyridin-2-yl)-3-((8aS,12S)-8a-methyl-1,2,6b,7,8,8a,10,12,12a,12b-decahydronaphtho[2′1′:4,5]indeno[1,2-c]pyrazol-12-yl)propanamide], the inhibition at 0.1 µM turned out to be 85%.
The figure for `CC(C)c1ccc(NC(=O)CC[C@@H]2c3c[nH]nc3[C@@]3(C)CCC4c5ccccc5CCC4C23)nc1` (stereo partly drawn) [Compound 138, N-(5-isopropylpyridin-2-yl)-3-((8aS,12S)-8a-methyl-1,2,6b,7,8,8a,10,12,12a,12b-decahydronaphtho[2′,1′:4,5]indeno[1,2-c]pyrazol-12-yl)propanamide] is 94%.
With `C[C@]12CCC3c4cccc(F)c4CCC3C1[C@H](CCC(=O)N1CCC3(CCOCC3)C1)c1c[nH]nc12` (stereo partly drawn) [Compound 219, 3-((8aS,12S)-3-fluoro-8a-methyl-1,2,6b,7,8,8a,10,12,12a,12b-decahydronaphtho[2′,1′:4,5]indeno[1,2-c]pyrazol-12-yl)-1-(8-oxa-2-azaspiro[4.5]decan-2-yl)propan-1-one], the inhibition at 0.1 µM worked out at 91%.
Then `C[C@]12CCC3c4ccccc4CCC3C1[C@H](CCC(=O)Nc1ccccn1)c1c[nH]nc12` (stereo partly drawn) [Compound 171, 3-((8aS,12S)-8a-methyl-1,2,6b,7,8,8a,10,12,12a,12b-decahydronaphtho[2′,1′:4,5]indeno[1,2-c]pyrazol-12-yl)-N-(pyridin-2-yl)propanamide], with 89%.
Then `C[C@]12CCC3c4ccc(Cl)cc4CCC3C1[C@H](CCC(=O)Nc1cc3c([nH]c1=O)CCCC3)c1c[nH]nc12` (stereo partly drawn) [Compound 123, 3-((8aS,12S)-4-chloro-8a-methyl-1,2,6b,7,8,8a,10,12,12a,12b-decahydronaphtho[2′,1′:4,5]indeno[1,2-c]pyrazol-12-yl)-N-(2-oxo-1,2,5,6,7,8-hexahydroquinolin-3-yl) propanamide], with 87%; and `Cc1ccnc(NC(=O)CC[C@@H]2c3c[nH]nc3[C@@]3(C)CCC4c5ccc(F)cc5CCC4C23)c1` (stereo partly drawn) [Compound 93, 3-((8aS,12S)-4-fluoro-8a-methyl-1,2,6b,7,8,8a,10,12,12a,12b-decahydronaphtho[2′,1′:4,5]indeno[1,2-c]pyrazol-12-yl)-N-(4-methylpyridin-2-yl)-propanamide], with 79%.
The figure for `COc1ccc(NC(=O)CC[C@@H]2c3c[nH]nc3[C@@]3(C)CCC4c5ccccc5CCC4C23)nn1` (stereo partly drawn) [Compound 156, N-(6-methoxypyridazin-3-yl)-3-((8aS,12S)-8a-methyl-1,2,6b,7,8,8a,10,12,12a,12b-decahydronaphtho[2′,1′:4,5]indeno[1,2-c]pyrazol-12-yl)propanamide] is 81%; for `C[C@]12CCC3c4cccc(F)c4CCC3C1[C@H](CCC(=O)N1CCNC(=O)C1)c1c[nH]nc12` (stereo partly drawn) [Compound 24, 4-(3-((8aS,12S)-3-fluoro-8a-methyl-1,2,6b,7,8,8a,10,12,12a,12b-decahydronaphtho[2′,1′:4,5]indeno[1,2-c]pyrazol-12-yl)propanoyl)piperazin-2-one] it is 83%; for `CN(C)C(=O)CC[C@@H]1c2c[nH]nc2[C@@]2(C)CCC3c4cccc(F)c4CCC3C12` (stereo partly drawn) [Compound 222, 3-((8aS,12S)-3-fluoro-8a-methyl-1,2,6b,7,8,8a,10,12,12a,12b-decahydronaphtho[2′,1′:4,5]indeno[1,2-c]pyrazol-12-yl)-N,N-dimethylpropanamide] it is 91%.
For the molecule `C[C@]12CCC3c4cccc(F)c4CCC3C1[C@H](CCC(=O)Nc1cc(F)ccn1)c1c[nH]nc12` (stereo partly drawn) [Compound 15, 3-((8aS,12S)-3-fluoro-8a-methyl-1,2,6b,7,8,8a,10,12,12a,12b-decahydronaphtho[2′,1′:4,5]indeno[1,2-c]pyrazol-12-yl)-N-(4-fluoropyridin-2-yl)propanamide], the inhibition at 0.1 µM was found to be 96%.
